{"source": "the kinase profiling compilation of Christmann-Franck et al. (2016)", "conditions_in_all_cases": "compound 10.0 µM", "key": {"AKT2 (human)": {"target": "AKT2 (human) (UniProt P31751)"}, "STK33 (human)": {"target": "STK33 (human) (UniProt Q9BYT3)", "sequence (Q9BYT3 whole entry, looked up)": "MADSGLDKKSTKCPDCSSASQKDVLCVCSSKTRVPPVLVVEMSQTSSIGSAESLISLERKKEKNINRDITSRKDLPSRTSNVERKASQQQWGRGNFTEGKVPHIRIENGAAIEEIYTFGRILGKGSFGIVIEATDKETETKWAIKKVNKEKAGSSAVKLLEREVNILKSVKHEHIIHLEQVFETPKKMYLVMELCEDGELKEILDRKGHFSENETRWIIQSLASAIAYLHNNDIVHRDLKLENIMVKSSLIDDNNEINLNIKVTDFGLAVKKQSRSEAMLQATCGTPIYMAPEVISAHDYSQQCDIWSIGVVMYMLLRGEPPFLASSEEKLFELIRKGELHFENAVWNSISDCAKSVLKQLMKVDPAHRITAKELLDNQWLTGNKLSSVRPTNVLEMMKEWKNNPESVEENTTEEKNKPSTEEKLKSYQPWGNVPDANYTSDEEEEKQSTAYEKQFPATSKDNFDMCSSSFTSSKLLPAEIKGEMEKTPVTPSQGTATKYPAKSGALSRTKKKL"}, "FGFR4 (human)": {"target": "FGFR4 (human) (UniProt P22455)", "sequence (P22455 whole entry, looked up)": "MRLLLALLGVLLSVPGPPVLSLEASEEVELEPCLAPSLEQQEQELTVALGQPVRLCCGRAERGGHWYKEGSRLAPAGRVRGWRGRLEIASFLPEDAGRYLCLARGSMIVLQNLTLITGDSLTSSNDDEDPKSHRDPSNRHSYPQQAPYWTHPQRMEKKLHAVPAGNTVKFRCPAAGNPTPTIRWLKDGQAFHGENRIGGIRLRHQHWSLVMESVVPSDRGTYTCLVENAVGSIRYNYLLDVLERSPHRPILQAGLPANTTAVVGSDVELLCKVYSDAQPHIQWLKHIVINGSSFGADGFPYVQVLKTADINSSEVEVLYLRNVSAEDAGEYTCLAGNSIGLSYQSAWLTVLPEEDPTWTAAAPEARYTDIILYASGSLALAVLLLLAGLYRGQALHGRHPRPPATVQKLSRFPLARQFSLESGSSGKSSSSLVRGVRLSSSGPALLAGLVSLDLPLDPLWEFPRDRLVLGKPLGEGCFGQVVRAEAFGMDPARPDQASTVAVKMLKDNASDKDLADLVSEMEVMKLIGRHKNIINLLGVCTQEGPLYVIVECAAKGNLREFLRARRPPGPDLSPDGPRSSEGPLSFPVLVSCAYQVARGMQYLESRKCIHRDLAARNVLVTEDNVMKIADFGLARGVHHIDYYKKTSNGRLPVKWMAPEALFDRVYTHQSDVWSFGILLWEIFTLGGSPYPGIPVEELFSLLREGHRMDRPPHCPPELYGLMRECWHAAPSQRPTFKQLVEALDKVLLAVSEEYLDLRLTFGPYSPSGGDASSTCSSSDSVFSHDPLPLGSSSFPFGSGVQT"}, "PAK4 (human)": {"target": "PAK4 (human) (UniProt O96013)"}, "IRAK4 (human)": {"target": "IRAK4 (human) (UniProt Q9NWZ3)", "sequence (Q9NWZ3 whole entry, looked up)": "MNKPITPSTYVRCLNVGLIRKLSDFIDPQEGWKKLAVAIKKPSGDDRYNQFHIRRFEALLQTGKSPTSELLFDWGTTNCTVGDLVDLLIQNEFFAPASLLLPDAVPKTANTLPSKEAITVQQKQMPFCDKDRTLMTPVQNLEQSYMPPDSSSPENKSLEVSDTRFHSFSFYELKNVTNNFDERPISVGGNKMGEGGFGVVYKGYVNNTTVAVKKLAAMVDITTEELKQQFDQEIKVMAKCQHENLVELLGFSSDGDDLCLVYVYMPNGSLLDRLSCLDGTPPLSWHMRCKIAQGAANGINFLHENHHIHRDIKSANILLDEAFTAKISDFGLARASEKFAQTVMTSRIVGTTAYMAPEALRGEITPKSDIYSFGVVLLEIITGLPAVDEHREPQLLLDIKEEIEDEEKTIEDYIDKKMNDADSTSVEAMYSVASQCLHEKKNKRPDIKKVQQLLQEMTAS"}, "PDGFRA (human)": {"target": "PDGFRA (human) (UniProt P16234)"}, "YES1 (human)": {"target": "YES1 (human) (UniProt P07947)"}, "LIMK1 (human)": {"target": "LIMK1 (human) (UniProt P53667)"}, "CDK5 CDK5R1 p35 (human)": {"target": "CDK5 CDK5R1 p35 (human) (UniProt Q00535+Q15078)"}, "PRKCQ (human)": {"target": "PRKCQ (human) (UniProt Q04759)"}, "KIT (human)": {"target": "KIT (human) (UniProt P10721)"}, "MAP3K8 (human)": {"target": "MAP3K8 (human) (UniProt P41279)"}, "NEK6 (human)": {"target": "NEK6 (human) (UniProt Q9HC98)", "sequence (Q9HC98 whole entry, looked up)": "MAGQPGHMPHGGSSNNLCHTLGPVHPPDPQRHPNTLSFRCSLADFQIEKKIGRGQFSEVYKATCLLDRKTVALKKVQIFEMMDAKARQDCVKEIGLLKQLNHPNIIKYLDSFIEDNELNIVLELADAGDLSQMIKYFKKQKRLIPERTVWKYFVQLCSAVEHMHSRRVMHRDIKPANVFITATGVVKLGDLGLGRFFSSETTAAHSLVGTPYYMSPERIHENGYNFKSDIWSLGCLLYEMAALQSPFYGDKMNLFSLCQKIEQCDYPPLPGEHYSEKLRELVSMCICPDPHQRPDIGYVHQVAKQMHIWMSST"}, "PLK3 (human)": {"target": "PLK3 (human) (UniProt Q9H4B4)"}, "DDR2 (human)": {"target": "DDR2 (human) (UniProt Q16832)", "sequence (Q16832 whole entry, looked up)": "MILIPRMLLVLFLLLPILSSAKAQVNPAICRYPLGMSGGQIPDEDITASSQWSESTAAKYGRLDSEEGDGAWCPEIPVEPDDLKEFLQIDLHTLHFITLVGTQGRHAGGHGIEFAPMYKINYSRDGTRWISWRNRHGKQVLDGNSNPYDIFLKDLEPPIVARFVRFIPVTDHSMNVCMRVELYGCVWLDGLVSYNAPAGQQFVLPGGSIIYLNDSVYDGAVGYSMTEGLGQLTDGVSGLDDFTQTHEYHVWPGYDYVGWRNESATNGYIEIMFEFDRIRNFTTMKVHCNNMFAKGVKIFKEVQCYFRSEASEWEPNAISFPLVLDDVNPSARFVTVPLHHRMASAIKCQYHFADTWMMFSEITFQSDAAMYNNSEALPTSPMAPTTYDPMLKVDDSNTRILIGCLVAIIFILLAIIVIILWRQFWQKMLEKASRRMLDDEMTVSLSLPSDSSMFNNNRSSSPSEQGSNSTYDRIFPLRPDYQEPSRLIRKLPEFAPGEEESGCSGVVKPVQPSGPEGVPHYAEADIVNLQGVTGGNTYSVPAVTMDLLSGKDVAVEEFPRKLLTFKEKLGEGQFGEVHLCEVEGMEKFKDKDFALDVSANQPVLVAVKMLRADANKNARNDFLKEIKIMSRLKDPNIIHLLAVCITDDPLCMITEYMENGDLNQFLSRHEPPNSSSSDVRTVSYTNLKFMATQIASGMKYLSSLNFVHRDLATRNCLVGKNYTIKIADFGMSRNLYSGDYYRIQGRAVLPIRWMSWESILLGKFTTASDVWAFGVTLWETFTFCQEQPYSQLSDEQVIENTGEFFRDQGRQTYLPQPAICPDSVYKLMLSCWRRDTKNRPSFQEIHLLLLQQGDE"}, "ERBB4 (human)": {"target": "ERBB4 (human) (UniProt Q15303)"}, "MAPK14 (human)": {"target": "MAPK14 (human) (UniProt Q16539)"}, "STK39 (human)": {"target": "STK39 (human) (UniProt Q9UEW8)"}, "CLK1 (human)": {"target": "CLK1 (human) (UniProt P49759)"}, "MAP3K2 (human)": {"target": "MAP3K2 (human) (UniProt Q9Y2U5)"}, "MAPK12 (human)": {"target": "MAPK12 (human) (UniProt P53778)"}, "TBK1 (human)": {"target": "TBK1 (human) (UniProt Q9UHD2)"}, "IKBKE (human)": {"target": "IKBKE (human) (UniProt Q14164)"}, "EPHB3 (human)": {"target": "EPHB3 (human) (UniProt P54753)"}, "MINK1 (human)": {"target": "MINK1 (human) (UniProt Q8N4C8)"}, "MAPKAPK3 (human)": {"target": "MAPKAPK3 (human) (UniProt Q16644)"}, "CAMK4 (human)": {"target": "CAMK4 (human) (UniProt Q16566)", "sequence (Q16566 whole entry, looked up)": "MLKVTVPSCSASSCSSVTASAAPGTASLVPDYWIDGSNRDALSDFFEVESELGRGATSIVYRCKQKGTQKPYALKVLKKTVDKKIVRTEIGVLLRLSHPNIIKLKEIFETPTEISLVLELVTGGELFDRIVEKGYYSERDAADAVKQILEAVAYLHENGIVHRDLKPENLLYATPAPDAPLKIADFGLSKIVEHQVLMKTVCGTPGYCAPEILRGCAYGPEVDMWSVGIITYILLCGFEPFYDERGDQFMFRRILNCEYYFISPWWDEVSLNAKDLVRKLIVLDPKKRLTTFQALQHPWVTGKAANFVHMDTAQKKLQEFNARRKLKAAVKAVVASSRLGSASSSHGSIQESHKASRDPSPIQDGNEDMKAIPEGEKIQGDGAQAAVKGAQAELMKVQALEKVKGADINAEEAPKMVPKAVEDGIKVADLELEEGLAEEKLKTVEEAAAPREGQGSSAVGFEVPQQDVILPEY"}, "MAP3K10 (human)": {"target": "MAP3K10 (human) (UniProt Q02779)", "sequence (Q02779 whole entry, looked up)": "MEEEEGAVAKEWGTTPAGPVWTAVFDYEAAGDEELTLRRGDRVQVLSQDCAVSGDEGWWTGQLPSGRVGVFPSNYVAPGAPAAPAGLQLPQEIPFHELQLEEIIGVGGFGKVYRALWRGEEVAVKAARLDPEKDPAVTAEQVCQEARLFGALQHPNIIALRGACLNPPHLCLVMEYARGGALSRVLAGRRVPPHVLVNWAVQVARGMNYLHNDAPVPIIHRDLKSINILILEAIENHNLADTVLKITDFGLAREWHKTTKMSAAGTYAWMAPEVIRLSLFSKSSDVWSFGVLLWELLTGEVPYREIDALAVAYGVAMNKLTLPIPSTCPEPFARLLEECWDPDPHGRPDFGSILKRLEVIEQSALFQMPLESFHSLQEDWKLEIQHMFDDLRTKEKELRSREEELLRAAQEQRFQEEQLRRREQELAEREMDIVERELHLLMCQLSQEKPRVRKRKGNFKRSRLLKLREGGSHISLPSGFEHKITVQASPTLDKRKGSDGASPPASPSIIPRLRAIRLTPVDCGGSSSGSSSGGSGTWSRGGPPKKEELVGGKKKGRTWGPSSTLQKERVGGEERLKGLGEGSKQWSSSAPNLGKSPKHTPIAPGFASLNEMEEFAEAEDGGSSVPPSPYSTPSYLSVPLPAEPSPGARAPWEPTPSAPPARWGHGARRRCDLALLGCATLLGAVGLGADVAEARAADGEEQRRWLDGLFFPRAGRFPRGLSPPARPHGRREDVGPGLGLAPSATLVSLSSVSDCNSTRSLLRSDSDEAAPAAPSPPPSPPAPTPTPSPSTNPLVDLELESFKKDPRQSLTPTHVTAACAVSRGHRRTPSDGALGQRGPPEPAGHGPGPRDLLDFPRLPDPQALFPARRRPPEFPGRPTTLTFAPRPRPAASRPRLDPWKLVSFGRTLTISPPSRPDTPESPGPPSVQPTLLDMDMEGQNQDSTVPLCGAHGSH"}, "ACVRL1 (human)": {"target": "ACVRL1 (human) (UniProt P37023)"}, "RPS6KB1 (human)": {"target": "RPS6KB1 (human) (UniProt P23443)"}, "MKNK2 (human)": {"target": "MKNK2 (human) (UniProt Q9HBH9)"}, "PRKCH (human)": {"target": "PRKCH (human) (UniProt P24723)"}, "GRK4 (human)": {"target": "GRK4 (human) (UniProt P32298)"}, "CAMK2B (human)": {"target": "CAMK2B (human) (UniProt Q13554)", "sequence (Q13554 whole entry, looked up)": "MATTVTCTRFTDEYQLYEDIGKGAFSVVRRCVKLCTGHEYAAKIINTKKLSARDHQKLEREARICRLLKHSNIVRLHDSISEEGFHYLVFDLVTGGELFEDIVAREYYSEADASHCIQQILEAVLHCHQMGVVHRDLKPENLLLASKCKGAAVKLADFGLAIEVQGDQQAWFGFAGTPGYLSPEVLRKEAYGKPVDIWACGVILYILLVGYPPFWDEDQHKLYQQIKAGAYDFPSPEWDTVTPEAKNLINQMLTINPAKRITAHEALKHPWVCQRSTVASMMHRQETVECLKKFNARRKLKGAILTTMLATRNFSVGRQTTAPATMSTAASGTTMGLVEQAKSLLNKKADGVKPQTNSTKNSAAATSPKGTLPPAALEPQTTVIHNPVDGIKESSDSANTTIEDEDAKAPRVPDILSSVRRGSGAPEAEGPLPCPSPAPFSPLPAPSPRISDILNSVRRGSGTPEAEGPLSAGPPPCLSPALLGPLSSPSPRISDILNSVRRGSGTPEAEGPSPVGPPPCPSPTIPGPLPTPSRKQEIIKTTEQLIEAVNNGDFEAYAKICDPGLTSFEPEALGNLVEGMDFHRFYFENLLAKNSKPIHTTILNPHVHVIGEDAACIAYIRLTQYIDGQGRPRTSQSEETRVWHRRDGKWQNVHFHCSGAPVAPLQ"}, "TGFBR1 (human)": {"target": "TGFBR1 (human) (UniProt P36897)"}, "CSNK1G1 (human)": {"target": "CSNK1G1 (human) (UniProt Q9HCP0)"}, "AURKB (human)": {"target": "AURKB (human) (UniProt Q96GD4)"}, "MAPKAPK2 (human)": {"target": "MAPKAPK2 (human) (UniProt P49137)"}, "EPHA8 (human)": {"target": "EPHA8 (human) (UniProt P29322)"}, "BTK (human)": {"target": "BTK (human) (UniProt Q06187)"}, "NUAK2 (human)": {"target": "NUAK2 (human) (UniProt Q9H093)"}, "NEK1 (human)": {"target": "NEK1 (human) (UniProt Q96PY6)"}, "CDK1 CCNB1 (human)": {"target": "CDK1 CCNB1 (human) (UniProt P06493+P14635)"}, "CDK1 CCNA2 (human)": {"target": "CDK1 CCNA2 (human) (UniProt P20248+P06493)"}}}
{"compound": "CC[C@H](C)n1cc(C)c2c(C(=O)NCc3c(C)cc(C)[nH]c3=O)cc(-c3ccc(N4CCNCC4)nc3)cc21", "values": [{"measurement": "residual activity", "setting": "AKT2 (human)", "result": 93.5, "unit": "%"}, {"measurement": "residual activity", "setting": "STK33 (human)", "result": 94.5, "unit": "%"}, {"measurement": "residual activity", "setting": "FGFR4 (human)", "result": 89, "unit": "%"}, {"measurement": "residual activity", "setting": "PAK4 (human)", "result": 97.5, "unit": "%"}, {"measurement": "residual activity", "setting": "IRAK4 (human)", "result": 107, "unit": "%"}, {"measurement": "residual activity", "setting": "PDGFRA (human)", "result": 99.5, "unit": "%"}, {"measurement": "residual activity", "setting": "YES1 (human)", "result": 78.5, "unit": "%"}, {"measurement": "residual activity", "setting": "LIMK1 (human)", "result": 99.5, "unit": "%"}, {"measurement": "residual activity", "setting": "CDK5 CDK5R1 p35 (human)", "result": 103, "unit": "%"}, {"measurement": "residual activity", "setting": "PRKCQ (human)", "result": 99.5, "unit": "%"}, {"measurement": "residual activity", "setting": "KIT (human)", "result": 99, "unit": "%"}, {"measurement": "residual activity", "setting": "MAP3K8 (human)", "result": 95.5, "unit": "%"}, {"measurement": "residual activity", "setting": "NEK6 (human)", "result": 95.5, "unit": "%"}, {"measurement": "residual activity", "setting": "PLK3 (human)", "result": 106, "unit": "%"}, {"measurement": "residual activity", "setting": "DDR2 (human)", "result": 102, "unit": "%"}, {"measurement": "residual activity", "setting": "ERBB4 (human)", "result": 93.5, "unit": "%"}, {"measurement": "residual activity", "setting": "MAPK14 (human)", "result": 100, "unit": "%"}, {"measurement": "residual activity", "setting": "STK39 (human)", "result": 95.5, "unit": "%"}, {"measurement": "residual activity", "setting": "CLK1 (human)", "result": 99, "unit": "%"}, {"measurement": "residual activity", "setting": "MAP3K2 (human)", "result": 100, "unit": "%"}, {"measurement": "residual activity", "setting": "MAPK12 (human)", "result": 97.5, "unit": "%"}, {"measurement": "residual activity", "setting": "TBK1 (human)", "result": 105, "unit": "%"}, {"measurement": "residual activity", "setting": "IKBKE (human)", "result": 94.5, "unit": "%"}, {"measurement": "residual activity", "setting": "EPHB3 (human)", "result": 92.5, "unit": "%"}, {"measurement": "residual activity", "setting": "MINK1 (human)", "result": 106, "unit": "%"}, {"measurement": "residual activity", "setting": "MAPKAPK3 (human)", "result": 100, "unit": "%"}, {"measurement": "residual activity", "setting": "CAMK4 (human)", "result": 87.5, "unit": "%"}, {"measurement": "residual activity", "setting": "MAP3K10 (human)", "result": 103, "unit": "%"}, {"measurement": "residual activity", "setting": "ACVRL1 (human)", "result": 98, "unit": "%"}, {"measurement": "residual activity", "setting": "RPS6KB1 (human)", "result": 97, "unit": "%"}, {"measurement": "residual activity", "setting": "MKNK2 (human)", "result": 98, "unit": "%"}, {"measurement": "residual activity", "setting": "PRKCH (human)", "result": 103, "unit": "%"}, {"measurement": "residual activity", "setting": "GRK4 (human)", "result": 98, "unit": "%"}, {"measurement": "residual activity", "setting": "CAMK2B (human)", "result": 95.5, "unit": "%"}, {"measurement": "residual activity", "setting": "TGFBR1 (human)", "result": 100, "unit": "%"}, {"measurement": "residual activity", "setting": "CSNK1G1 (human)", "result": 110, "unit": "%"}, {"measurement": "residual activity", "setting": "AURKB (human)", "result": 104, "unit": "%"}, {"measurement": "residual activity", "setting": "MAPKAPK2 (human)", "result": 99, "unit": "%"}, {"measurement": "residual activity", "setting": "EPHA8 (human)", "result": 89, "unit": "%"}, {"measurement": "residual activity", "setting": "BTK (human)", "result": 103, "unit": "%"}, {"measurement": "residual activity", "setting": "NUAK2 (human)", "result": 103, "unit": "%"}, {"measurement": "residual activity", "setting": "NEK1 (human)", "result": 96.5, "unit": "%"}, {"measurement": "residual activity", "setting": "CDK1 CCNB1 (human)", "result": 99, "unit": "%"}, {"measurement": "residual activity", "setting": "CDK1 CCNA2 (human)", "result": 92.5, "unit": "%"}]}
